Measured values reported in PubChem BioAssay (NCI).
“And” between values parts separate entries of the source, which are not always exact repeats. Identical values can stand only once.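 Cultured in 96-well plates, cells were exposed to test compound for 48 hours across five concentrations. GI50 = concentration required for 50% inhibition of growth. The concentration for full growth arrest is given as TGI.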

Test system: MDA-MB-468 breast
Assay: inhibition of tumour cell growth, NCI panel, 48 h

Structure (SMILES)	GI50	TGI
COc1ccc(-c2nc(-c3nc4ccc(C(F)(F)F)cc4[nH]3)c3ccccn23)cc1	13400 nM	> 100 µM
CCN(Cc1cccc(F)c1F)c1ccc(CO)c(Cl)c1	< 12.5 nM	0.035 µM
FC(F)(F)c1[nH]ncc1-c1nc2ccc3[nH]ncc3c2c2c1CCCC2	1860 nM	4.67 µM
CC1(C)N=C(N)N=C(N)N1c1ccc(Cl)c(Cl)c1	337 nM	> 57.5 µM
O=C(COc1ccc(-c2nc3cc(Cl)c(Cl)cc3[nH]2)cc1)N=Nc1c(O)[nH]c2ccccc12	2600 nM	6.23 µM
CN(C)c1ccc(C(=C2C=CC(=[N+](C)C)C=C2)c2ccccc2Cl)cc1	220 nM	0.655 µM
COc1cc(NC(C)CCCN)c2ncccc2c1Sc1ccc(Cl)cc1 (configuration not stated)	1700 nM	3.11 µM
O=Nc1c(O)c2ccccc2c2ccccc12	1810 nM	3.73 µM
Cc1cc2c(cc1C)[n+](Cc1ccc3ccccc3n1)cn2Cc1ccc2ccccc2n1	444 nM	1.95 µM
CN1CCN(c2ccc(C(=O)Nc3cccc(C#Cc4cccc5[nH]nc(N)c45)c3)cc2C(F)(F)F)CC1	821 nM	2.39 µM
Clc1ccc(N2CCC(N3CCCC3)CC2)cc1-c1nc2ccccc2[nH]1	12100 nM	26.3 µM
COc1ccc(C(=O)OC2C(OC3C(O)COC(O[C@H]4C[C@H]5[C@@H]6CC=C7C[C@@H](O)CC[C@]7(C)[C@H]6CC[C@]5(C)[C@H]4[C@H](C)C(=O)CCC(C)C)C3OC(C)=O)OCC(O)C2O)cc1 (some centres not stated)	6.66 nM	1.53 µM
CC(=O)c1ccc2c(c1)N(CCCN(C)C)c1ccccc1S2	10400 nM	22.8 µM
COc1ccc(Oc2cc(NCCC(F)(F)F)c3ncc(-c4ccc(C(=O)NC5CC5)c(C)c4)n3n2)c(F)c1F	3650 nM	> 100 µM
COc1cc(C2C3=C(COC3=O)Nc3cc4c(cc32)OCO4)cc2c1OCO2 (configuration not stated)	55.9 nM	0.242 µM
Cc1cc(O)cc(C)c1/C=C/c1cncc(C(=O)OC(C)(C)C)c1	8410 nM	> 25 µM
CC1(C)CC(=O)c2c(ccc(C(=O)C[C@@H](N)CO)c2N)O1	561 nM	6.88 µM
C[C@]12CC[C@@H]3c4ccc(O)cc4CC[C@H]3[C@@H]1CC[C@@H]2NS(=O)(=O)c1ccc2ccccc2c1	3620 nM	15.2 µM
O=C(Nc1cccc(-n2cc(-c3ccncc3)c(-c3ccc(O)c(Cl)c3)n2)c1)c1ccc(Cl)c(Cl)c1	16200 nM	> 100 µM
COc1ccc2[nH]c(O)c(/C=c3/ccc4c(c3)N=C(c3ccc(F)cc3)N=4)c2c1	4140 nM	22.3 µM
Brc1ccc2[nH]cc(-c3nn4cc(-c5nccs5)nc4s3)c2c1	3260 nM	18.3 µM

Structure (SMILES)	GI50	TGI
CNCCCn1c2c(c3ccc(F)cc3c1=O)C(=O)c1cc(OC)cnc1-2	220 nM	0.66 µM
COc1ccc(/C(=N/O)c2cc(OC)c(OC)c(OC)c2)c(OC)c1N	3540 nM	> 100 µM
Cn1c2ccccc2c2nnc(NNCc3ccccn3)nc21	268 nM	1.16 µM
CN(C)CCOc1ccc(-c2cc(-c3ccc4c(c3)CC/C4=N\O)c(-c3ccncc3)o2)cc1	2800 nM	6.17 µM
COc1ccc2nccc(/C=C/c3ccnc4ccc(OC)cc34)c2c1	> 100000 nM	> 100 µM
CC/C=C\C[C@H](O)C/C=C1/C(=O)C=C[C@@H]1C/C=C\CCCC(=O)NC	940 nM	2.51 µM
CN(C)c1ccc(/C=N/NC(=O)c2cccc3ccccc23)c(Cl)c1	311 nM	2.57 µM
CSc1nc(N)c2c(n1)NC(c1ccccc1)C1CCc3ccccc3C1=N2 (configuration not stated)	84400 nM	> 100 µM
COc1ccc(/C=N\NC(=O)c2ccc3nc(-c4ccc(Br)cc4)[nH]c3c2)cc1	2750 nM	5.97 µM
O=C(c1ccccc1O)c1[nH]c(Cl)c(Cl)c1-n1c(C(=O)c2ccccc2O)cc(Cl)c1Cl	436 nM and 339 nM	6.53 µM and 10.4 µM
Cc1ncc(-c2ccnc(Nc3ccc(S(C)(=O)=O)cc3)n2)n1C(C)C	1120 nM	2.93 µM
CCCCCSC1C2C(=O)C(Br)=CC13CCNc1c(O)c4c5c(c13)=[N+]2CCC=5C=N4 (configuration not stated)	390 nM	1.09 µM
CNC(=O)c1cc2c(Oc3ccc(NC(=S)NC(=O)Cc4ccccc4)cc3F)ccnc2cc1OC	> 29900 nM	> 100 µM
Oc1c(CNCCNCc2cc(Cl)cc(Cc3ccccc3)c2O)cc(Cl)cc1Cc1ccccc1	307 nM	4.43 µM
CC(=O)/C(=C\c1c(-c2ccccc2)[nH]c2ccccc12)S(=O)(=O)c1ccccc1	987 nM	14.8 µM
COC(=O)/C(=C\c1c(-c2ccccc2)[nH]c2ccccc12)S(C)(=O)=O	5400 nM	84.8 µM
COC(=O)[C@@H](OC)[C@@H]1Cc2cc3cc(OC4CC(OC5CC(O)C(O)C(C)O5)C(O)C(C)O4)c(C)c(O)c3c(O)c2C(=O)[C@H]1OC1CC(OC2CC(OC3CC(C)(O)C(O)C(C)O3)C(O)C(C)O2)C(O)C(C)O1 (some centres not stated)	28.3 nM	0.0713 µM
Oc1ccccc1C=Nc1ccccc1N=Cc1ccccc1O.[Cu+2]	1730 nM	13.5 µM
CCN1C(=O)N(CC)C2C1NN=c1s/c(=C\c3cccc([N+](=O)[O-])c3)c(=O)n12 (configuration not stated)	375 nM	> 100 µM
N=C(N)SCc1ccc([N+](=O)[O-])cc1[N+](=O)[O-]	2520 nM	8.55 µM
